According to article PMC5953424 (Nature chemical biology, 2014):

Columns and labels:
PME1 = molecular target: T1, PME1 (Homo sapiens, UniProt Q9Y570); assay: EnPlex assay; format: biochemical; details: FP-biotin 1 μM, <5 = >50% inhibition at lowest dose 5 nM
T1 sequence (Q9Y570 1-386): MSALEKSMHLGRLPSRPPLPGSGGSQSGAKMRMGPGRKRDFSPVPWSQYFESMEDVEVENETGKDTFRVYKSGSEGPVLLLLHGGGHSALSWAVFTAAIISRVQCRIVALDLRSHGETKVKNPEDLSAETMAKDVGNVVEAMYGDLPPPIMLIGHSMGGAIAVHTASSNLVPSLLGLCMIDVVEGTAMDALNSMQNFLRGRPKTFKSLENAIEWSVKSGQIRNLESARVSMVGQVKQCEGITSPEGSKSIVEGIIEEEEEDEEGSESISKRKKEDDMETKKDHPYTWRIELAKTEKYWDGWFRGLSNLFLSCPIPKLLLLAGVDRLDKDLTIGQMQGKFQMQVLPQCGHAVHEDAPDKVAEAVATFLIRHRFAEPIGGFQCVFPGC

[1] = Oral glucose tolerance test; format: in vivo, C57BL/6 mice; details: mice, oral gavage 1 h before dextrose 5 g/kg; listed as ARI-2243
Adverse effects in mice = format: in vivo

Compound | IC50 (PME1) [nM] | Anti-hyperglycemic activity in oral glucose tolerance test [1] | Adverse effects in mice (Adverse effects in mice)
COC(=O)N1C(=O)[C@](c2ccccc2)(C2CCCC2)N1C(=O)OC [ABL127] | 12 | – | –
CC(N)C(=S)N1CCCC1B(O)O (stereo not drawn) [Compound 24, Ala-boroPro thioxoamide] | – | highly effective and essentially equal anti-hyperglycemic glycemic activity | no significant adverse effects
